From patent US20090004660A1, “METHOD FOR DETECTING NEUROBLASTOMA AND ITS MALIGNANCY AND METHOD FOR SUPPRESSING THE SAME” (priority 2007, published 2009) come the findings set out here.

Holding throughout (type): cell-based, human
Assay [1] has as its system PTGER2 gene. Nature of the assay: RT-PCR of PTGER2 gene expression in treated neuroblastoma cell lines lacking PTGER2 expression. Here is the method:
Moreover, in order to investigate whether or not the lowered expression of the PTGER2 gene was due to DNA methylation, neuroblastoma cell lines lacking expression of the PTGER2 gene were used and treated with 1 μM or 5 μM of 5-aza-dCyd, a demethylating reagent, for 5 days and/or 100 ng/ml of TSA, a deacetylation inhibitor, for 12 hours. RNA was extracted from each cell line and the PTGER2 gene expression thereof was examined by RT-PCR (FIG. 1C).

For assay [2], the system named is PTGDR gene. The assay can be described thus: RT-PCR of PTGDR gene expression in treated neuroblastoma cell lines. The note with it: three types of neuroblastoma cell lines, treatment with 5-aza-dCyd.
The subject of assay [3] is CpG island of the PTGER2 gene. The assay can be described thus: Methylation status of the PTGER2 CpG island in neuroblastoma cells cultured with a demethylating agent. As to conditions: neuroblastoma cells cultured in the presence of 5-aza-dC.
The subject of assay [4] is GOTO and SJ-N-CG cells. The assay can be described thus: WST cell viability assay in neuroblastoma cell lines. The note with it: PTGER2 gene-nonexpressing cell lines (GOTO, SJ-N-CG); 0.01 mM, 0.1 mM, 1 mM for 72 hours. The procedure: Since the PTGER2 protein and G protein are coupled to be associated with increased intracellular cAMP concentration (Narumiya, et al., Physiol Rev, 79, 1193-1226, 1999), the association between intracellular cAMP concentration and proliferation of neuroblastoma was investigated. First, neuroblastoma cell lines lacking expression of the PTGER2 gene (GOTO and SJ-N-CG) and neuroblastoma cell lines expressing the PTGER2 gene (SJ-N-KP and KP-N-SIFA) were cultured in a growth medium with 0 mM, 0.01 mM, 0.1 mM, and 1 mM of 8-Br-cAMP for 72 hours. Then, the viability of these cells was detected by WST assay (FIG. 5).

Entries after “also recorded” stand apart in the source; their conditions may differ.

With `Nc1ncn([C@H]2C[C@H](O)[C@@H](CO)O2)c(=O)n1` [5-aza-dCyd, 5-azadeoxycytidine], the PTGER2 gene expression entry is given as “restored” in assay [1] (1 μM or 5 μM 5-aza-dCyd alone for 5 days) and “successfully restored” in assay [1] (1 μM or 5 μM 5-aza-dCyd alone for 5 days, listed as 5-aza-dC). Moreover, the PTGDR gene expression entry in assay [2] is reported as “restored”. The “demethylation of the CpG island of the PTGER2 gene” value in assay [3] is “successfully demethylated”.

`Nc1ncnc2c1nc(Br)n2[C@@H]1O[C@@H]2COP(=O)(O)O[C@H]2[C@H]1O` [8-Br-cAMP]: in assay [4], the “proliferation (cell viability by WST assay)” value was “suppressed”.

For `CC(/C=C/C(=O)NO)=C\[C@@H](C)C(=O)c1ccc(N(C)C)cc1` [TSA, Trichostatin A], in assay [1] (100 ng/ml TSA alone for 12 hours), the PTGER2 gene expression entry was “restored; also recorded: increased level”.
